Starred links: 1 amine or outer side, 2 acyl side, 3 side chain; linkers in the order of their positions; H or OH if unused. Non-standard residues stand in square brackets, D forms with d. Residues, ends and D or L forms follow the SMILES beside them. Groups on a side chain read outwards from the residue. *: point of attachment. C18 diacid = O=C(O)CCCCCCCCCCCCCCCCC(=O)*; γGlu = O=C(O)[C@H](CCC(=O)[*:2])N[*:1]; AEEA = NCCOCCOCC(=O)O; Aib = CC(C)(N)C(=O)O
Test system: rat CRF2R α receptor
Assay: cAMP agonism at rat CRF2R α receptor in A7R5 rat aortic smooth muscle cells (Example 8)
Type: cell-based
Conditions: cAMP HTRF, A7R5 rat aortic smooth muscle cell line, 0% HSA
Procedure: Cells were grown in a T175 culture flask placed at 37° C. to near confluence in medium (DMEM/10% FBS) and collected in 2 ml vials in cell culture medium containing 10% DMSO in a concentration of 10-50 million cells/ml. Each vial contained 1.8 ml cells. The vials were slowly frozen to −80° C. in isopropanol and then transferred in liquid nitrogen for storage. Prior to use, frozen cells were thawed quickly at 37° C. and washed (5 min at 900 rpm) with 20 ml cell buffer (1×HBSS; 20 mM HEPES; 0% or 0.1% HSA). Cells were resuspended in assay buffer (cell buffer plus 2 mM IBMX) and adjusted to a cell density of 1 million cells/ml. For measurement, 5 μl cells (final […]) and 5 μL of test compound were added to a 384-well plate, followed by incubation for 30 minutes at room temperature.
The CAMP content of cells was determined using a kit from Cisbio Corp. (cat. no. 62AM4PEC) based on HTRF (Homogenous Time Resolved Fluorescence). After addition of HTRF reagents diluted in lysis buffer (kit components), the plates were incubated for 1 h, followed by measurement of the fluorescence ratio at 665/620 nm. The percent activity value (E %) was calculated by setting 1000 nM of urocortin 2 (UCN2) as 100%. The in vitro potency of the compounds was quantified by determining the concentrations that caused 50% activation of maximal response (EC50).
Using the procedure described in Example 7, the activity of the compounds at the rat CRF2R α receptor was assessed. The A7R5 rat aortic smooth muscle cell line was used in this study.

Structure (SMILES) | EC50
CC[C@H](C)[C@H](NC(C)=O)C(=O)N[C@H](C(=O)N[C@@H](CC(C)C)C(=O)N[C@@H](CO)C(=O)N[C@@H](CC(C)C)C(=O)N[C@@H](CC(=O)O)C(=O)N[C@@H](C(=O)N1CCC[C@H]1C(=O)N[C@H](C(=O)N[C@@H](CCC(=O)O)C(=O)N[C@@H](CC(C)C)C(=O)N[C@@H](CCCCNC(=O)COCCOCCNC(=O)COCCOCCNC(=O)CC[C@H](NC(=O)CCCCCCCCCCCCCCCCC(=O)O)C(=O)O)C(=O)N[C@@H](CCC(N)=O)C(=O)N[C@H](C(=O)N[C@@H](CC(C)C)C(=O)N[C@@H](CC(C)C)C(=O)N[C@@H](CCC(=O)O)C(=O)N[C@@H](CCC(N)=O)C(=O)N[C@@H](CCC(=O)O)C(=O)N[C@@H](CCCNC(=N)N)C(=O)N[C@@H](CCC(N)=O)C(=O)N[C@@H](CCCCN)C(=O)NC(C)(C)C(=O)N[C@@H](CCC(N)=O)C(=O)N[C@@H](CCCNC(=N)N)C(=O)N[C@@H](CCC(=O)O)C(=O)N[C@@H](CCC(N)=O)C(=O)N[C@@H](C)C(=O)N[C@@H](CCC(=O)O)C(=O)N[C@@H](CCCCN)C(=O)N[C@@H](CC(N)=O)C(=O)N[C@@H](CCCCN)C(=O)N[C@@H](CCC(N)=O)C(=O)N[C@H](C(=O)N[C@@H](CC(C)C)C(=O)N[C@@H](CCC(=O)O)C(=O)N[C@@H](CCC(N)=O)C(=O)N[C@H](C(N)=O)C(C)C)[C@@H](C)CC)[C@@H](C)CC)[C@@H](C)CC)C(C)C)C(C)C [compound 162] (Ac-IVLSLD[dV]PIELK([AEEA-AEEA-γGlu-C18 diacid])QILLEQERQK[Aib]QREQAEKNKQILEQV-NH2) | 48.6 nM
CC[C@H](C)[C@H](N)C(=O)N[C@H](C(=O)N[C@@H](CC(C)C)C(=O)N[C@@H](CO)C(=O)N[C@@H](CC(C)C)C(=O)N[C@@H](CC(=O)O)C(=O)N[C@@H](C(=O)N1CCC[C@H]1C(=O)N[C@H](C(=O)N[C@@H](Cc1c[nH]cn1)C(=O)N[C@@H](CC(C)C)C(=O)N[C@@H](CCCCNC(=O)COCCOCCNC(=O)COCCOCCNC(=O)CC[C@H](NC(=O)CCCCCCCCCCCCCCCCC(=O)O)C(=O)O)C(=O)N[C@@H](CCC(N)=O)C(=O)N[C@H](C(=O)N[C@@H](CC(C)C)C(=O)N[C@@H](CC(C)C)C(=O)N[C@@H](CCC(=O)O)C(=O)N[C@@H](CCC(N)=O)C(=O)N[C@@H](CCC(=O)O)C(=O)N[C@@H](CCCNC(=N)N)C(=O)N[C@@H](CCC(N)=O)C(=O)N[C@@H](CCCCN)C(=O)NC(C)(C)C(=O)N[C@@H](CCC(N)=O)C(=O)N[C@@H](CCCNC(=N)N)C(=O)N[C@@H](CCC(=O)O)C(=O)N[C@@H](CCC(N)=O)C(=O)N[C@@H](C)C(=O)N[C@@H](CCC(=O)O)C(=O)N[C@@H](CCCCN)C(=O)N[C@@H](CC(N)=O)C(=O)N[C@@H](CCCCN)C(=O)N[C@@H](CCC(N)=O)C(=O)N[C@H](C(=O)N[C@@H](CC(C)C)C(=O)N[C@@H](CCC(=O)O)C(=O)N[C@@H](CCC(N)=O)C(=O)N[C@H](C(N)=O)C(C)C)[C@@H](C)CC)[C@@H](C)CC)[C@@H](C)CC)C(C)C)C(C)C [compound 163] (H-IVLSLD[dV]PIHLK([AEEA-AEEA-γGlu-C18 diacid])QILLEQERQK[Aib]QREQAEKNKQILEQV-NH2; N-terminus assumed) | 1.5 nM
